Source: ChEMBL document CHEMBL1201862, “PubChem BioAssay data set” (2004)
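All cell lines were grown in 96-well plates and treated with compound for 48 hours. GI50 marks 50% less growth.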 The source made the active and inactive calls. Rule as the data show it: active = GI50 up to about 1.1 µM and inactive = higher.

Key:
Assay in all cases: NCI-60 cell line screen, 48 h
OVCAR-5 = tested on: OVCAR-5
UACC-62 = tested on: UACC-62
NCI/ADR-RES = tested on: NCI/ADR-RES
HOP-92 = tested on: HOP-92
ACHN = tested on: ACHN
Hs-578T = tested on: Hs-578T
T47D = tested on: T47D
UACC-257 = tested on: UACC-257
HCT-116 = tested on: HCT-116
NCI-H23 = tested on: NCI-H23
DU-145 = tested on: DU-145
UO-31 = tested on: UO-31
CAKI-1 = tested on: CAKI-1
BT-549 = tested on: BT-549
TK-10 = tested on: TK-10
HCT-15 = tested on: HCT-15
A549 = tested on: A549
SF-539 = tested on: SF-539
RPMI-8226 = tested on: RPMI-8226

Row | SMILES | GI50 (OVCAR-5) | GI50 (UACC-62) | GI50 (NCI/ADR-RES) | GI50 (HOP-92) | GI50 (ACHN) | GI50 (Hs-578T) | GI50 (T47D) | GI50 (UACC-257) | GI50 (HCT-116) | GI50 (NCI-H23) | GI50 (DU-145) | GI50 (UO-31) | GI50 (CAKI-1) | GI50 (BT-549) | GI50 (TK-10) | GI50 (HCT-15) [µM] | GI50 (A549) | GI50 (SF-539) | GI50 (RPMI-8226)
1 | Nc1ccccc1C(=O)NC(=O)Nc1ccc(Oc2ncc(Br)cn2)c(Cl)c1 | 0.438 µM (active) | < 0.01 µM (active) | < 0.01 µM (active) | 0.217 µM (active) | 0.0614 µM (active) | < 0.01 µM (active) | 51.8 µM (inactive) | < 0.0259 µM (active) | < 0.01 µM (active) | 0.0108 µM (active) | < 0.0123 µM (active) | 0.014 µM (active) | < 0.01 µM (active) | 2.48 µM (inactive) | 0.0274 µM (active) | < 0.01 | < 0.01 µM (active) | < 0.01 µM (active) | 0.0182 µM (active)
2 | O=[N+]([O-])c1ccc(-c2cc(O)c3nc4ccccc4n3c2)cc1 | > 100 µM (inactive) | > 31.6 µM (inactive) | > 100 µM (inactive) | > 65.9 µM (inactive) | 65.2 µM (inactive) | > 100 µM (inactive) | 74 µM (inactive) | > 100 µM (inactive) | > 100 µM (inactive) | > 100 µM (inactive) | > 100 µM (inactive) | > 91.4 µM (inactive) | > 100 µM (inactive) | > 100 µM (inactive) | > 100 µM (inactive) | > 100 | > 100 µM (inactive) | > 100 µM (inactive) | > 100 µM (inactive)
3 | COc1cc2c(/C=C3/C(=O)N(C)c4ccccc43)c(Cl)[nH]c2cc1C | 0.581 µM (active) | 0.179 µM (active) | 0.17 µM (active) | 1.81 µM (inactive) | 0.51 µM (active) | 0.226 µM (active) | 1.46 µM (inactive) | 0.169 µM (active) | 0.233 µM (active) | 0.203 µM (active) | 0.246 µM (active) | 2.28 µM (inactive) | 0.509 µM (active) | 0.321 µM (active) | 0.284 µM (active) | 0.13 | 0.361 µM (active) | 0.0244 µM (active) | 0.249 µM (active)
4 | C1OCN2c3nonc3N3COCN4c5nonc5N1C2C43 (stereo not drawn) | > 100 µM (inactive) | > 100 µM (inactive) | > 100 µM (inactive) | > 100 µM (inactive) | > 100 µM (inactive) | > 100 µM (inactive) | > 100 µM (inactive) | > 100 µM (inactive) | 57.4 µM (inactive) | > 100 µM (inactive) | > 100 µM (inactive) | > 100 µM (inactive) | > 100 µM (inactive) | > 100 µM (inactive) | > 100 µM (inactive) | 65.9 | > 100 µM (inactive) | > 100 µM (inactive) | > 100 µM (inactive)
5 | C/C=C(\C)C(=O)OC1/C=C(\C)CC/C=C(\C)CC2OC(=O)C(C)(OC(C)=O)C12 (stereo not drawn) | > 100 µM (inactive) | > 100 µM (inactive) | > 100 µM (inactive) | > 100 µM (inactive) | > 100 µM (inactive) | > 100 µM (inactive) | > 100 µM (inactive) | > 100 µM (inactive) | > 100 µM (inactive) | > 100 µM (inactive) | > 100 µM (inactive) |  | > 100 µM (inactive) | > 100 µM (inactive) | > 100 µM (inactive) | > 100 | > 100 µM (inactive) | > 100 µM (inactive) | > 100 µM (inactive)
6 | O=C(Nc1ccn(C2CC(I)C(COC(c3ccccc3)(c3ccccc3)c3ccccc3)O2)c(=O)n1)c1ccccc1 (stereo not drawn) | > 21.5 µM (inactive) | 11.2 µM (inactive) | 9.75 µM (inactive) | 5.14 µM (inactive) | 12.7 µM (inactive) | 3.03 µM (inactive) | 6.87 µM (inactive) | 10.8 µM (inactive) | 6.35 µM (inactive) | 6.89 µM (inactive) | 11.9 µM (inactive) | 4.53 µM (inactive) | 15.6 µM (inactive) | 25.6 µM (inactive) | 15.9 µM (inactive) | 8.73 | 7.83 µM (inactive) | 12.4 µM (inactive) | 7.26 µM (inactive)
7 | O=S(=O)(/C=C/C=C/S(=O)(=O)c1ccccc1)c1ccccc1 | 7.83 µM (inactive) | 0.721 µM (active) | 1.93 µM (inactive) | 1.37 µM (inactive) | 0.769 µM (active) | 2.43 µM (inactive) | 1.04 µM (active) | 0.733 µM (active) | 1.27 µM (inactive) | 1.35 µM (inactive) | 14.6 µM (inactive) | 1.46 µM (inactive) | 1.24 µM (inactive) | 1.15 µM (inactive) | 1.57 µM (inactive) | 1.2 | 9.27 µM (inactive) | 3.88 µM (inactive) | 0.419 µM (active)
8 | CCOC(=O)COc1c(OC)cc(C2C3=C(COC3=O)Oc3cc4c(cc32)OCO4)cc1OC (stereo not drawn) | > 84.1 µM (inactive) | 1.69 µM (inactive) | 3.37 µM (inactive) | 14.6 µM (inactive) | 6.52 µM (inactive) | 4.51 µM (inactive) | 2.54 µM (inactive) | 9.77 µM (inactive) | 0.773 µM (active) | 0.646 µM (active) | 4.5 µM (inactive) | 13.4 µM (inactive) | 3.41 µM (inactive) | 21.9 µM (inactive) | 6.18 µM (inactive) | 0.502 | 4.45 µM (inactive) | 3.57 µM (inactive) | 0.255 µM (active)
9 | FC(F)(F)c1ccc2c(c1)nc(Cc1ccccc1)n2C[C@@H]1CCCN2CCCCC12 (stereo partly drawn) | 16.1 µM (inactive) | 16.7 µM (inactive) | 15.1 µM (inactive) | 8.85 µM (inactive) | 13.5 µM (inactive) | 18.5 µM (inactive) | 14.4 µM (inactive) | 14.7 µM (inactive) | 14.1 µM (inactive) | 14.6 µM (inactive) | 15.5 µM (inactive) | 0.19 µM (active) | 15.1 µM (inactive) | 14 µM (inactive) | 17.1 µM (inactive) | 14.6 | 15 µM (inactive) | 18.8 µM (inactive) | 17.1 µM (inactive)
10 | CN(C)c1ccc(C=C2N=C(c3ccccc3)N(c3cc(C(=O)c4ccccc4)ccc3N3C(=O)/C(=C/c4ccc(N(C)C)cc4)N=C3c3ccccc3)C2=O)cc1 | 35.5 µM (inactive) | 4.24 µM (inactive) | 4.06 µM (inactive) | > 100 µM (inactive) | 6.31 µM (inactive) | 4.2 µM (inactive) | 5.65 µM (inactive) | 6.43 µM (inactive) | 3.76 µM (inactive) |  | 5.74 µM (inactive) | 15.8 µM (inactive) | 14 µM (inactive) | 28.3 µM (inactive) | 23.8 µM (inactive) | 4.49 | 6.31 µM (inactive) | 2.34 µM (inactive) | 3.01 µM (inactive)
11 | O=C1N[C@@H]2c3c(Br)sc(Br)c3C(=O)[C@@H]2O1 | 13.7 µM (inactive) | 13.2 µM (inactive) | 3.66 µM (inactive) | 5.14 µM (inactive) | 1.85 µM (inactive) | 19.7 µM (inactive) | 9.18 µM (inactive) | 3.32 µM (inactive) |  | 2.83 µM (inactive) | 15 µM (inactive) | 10.1 µM (inactive) | 0.877 µM (active) | 8.57 µM (inactive) | 6 µM (inactive) | 1.91 | 16.4 µM (inactive) | 10.3 µM (inactive) | 5.12 µM (inactive)
12 | CC(=O)Nc1ccc(OC/C(N)=N/NC(=O)c2ccncc2)cc1 | > 100 µM (inactive) | > 100 µM (inactive) | > 100 µM (inactive) | > 100 µM (inactive) | > 100 µM (inactive) | > 100 µM (inactive) | > 100 µM (inactive) | > 100 µM (inactive) | > 100 µM (inactive) | > 100 µM (inactive) | > 100 µM (inactive) |  | > 100 µM (inactive) | > 100 µM (inactive) | > 100 µM (inactive) | > 100 | > 100 µM (inactive) | > 100 µM (inactive) | > 100 µM (inactive)
13 | Cc1ccc(CS(=O)(=O)C/N=C2\Sc3ccccc3N\C2=C/C(=O)c2ccc(Cl)cc2)cc1 | > 10 µM (inactive) | > 10 µM (inactive) | > 10 µM (inactive) | > 10 µM (inactive) | > 10 µM (inactive) | 9.55 µM (inactive) | 1.71 µM (inactive) | > 10 µM (inactive) | > 10 µM (inactive) | > 10 µM (inactive) | > 10 µM (inactive) |  | > 10 µM (inactive) | > 10 µM (inactive) | > 10 µM (inactive) | > 10 | > 10 µM (inactive) | > 10 µM (inactive) | > 10 µM (inactive)
14 | O=C(NC1CCCCC1)N1CCNC1=S | > 100 µM (inactive) |  | > 100 µM (inactive) | > 100 µM (inactive) | > 100 µM (inactive) | > 100 µM (inactive) | > 100 µM (inactive) | > 100 µM (inactive) | > 100 µM (inactive) | > 100 µM (inactive) | > 100 µM (inactive) | > 100 µM (inactive) | > 100 µM (inactive) | 66.4 µM (inactive) | > 100 µM (inactive) | > 100 | > 100 µM (inactive) | 65.6 µM (inactive) | 65.6 µM (inactive)
15 | COc1ccc(/C=c2\s/c(=C3/SC(=S)N(c4ccccc4)C3=O)n(-c3ccccc3)c2=O)cc1 | > 100 µM (inactive) | 61 µM (inactive) | > 100 µM (inactive) | 21.6 µM (inactive) | 13.6 µM (inactive) | 18.9 µM (inactive) | > 100 µM (inactive) |  | > 100 µM (inactive) | 26.9 µM (inactive) | > 100 µM (inactive) | 73.1 µM (inactive) | 32.9 µM (inactive) | 43.2 µM (inactive) | 21.5 µM (inactive) | > 100 | > 100 µM (inactive) | 32.8 µM (inactive) | > 100 µM (inactive)
